In US9649295B2, “Chemical inhibitors of soluble adenylyl cyclase (sAC)” (Cornell Research Foundation, Inc., priority 2004, dated 2017):
Entries after “also recorded” stand apart in the source; their conditions may differ. One block for each molecule: values may come before it. Where no end group is shown, it is not given here.

Key:
cAMP in INS-1E cells = assay: intracellular cAMP in INS-1E cells; assay type: cell-based; details: for effect on cAMP induced by high glucose: 16 mM glucose, 30 μM KH7, 30 μM KH7.15, 50 μM 2-hydroxyestradiol, 50 μM 2′5′ddAdo; for cAMP generation in low glucose: 2.5 mM glucose, 15 minutes, 10 nM glucagon
Method: (§1) Briefly, cells (passage 140-150) were plated at 2.5×10^5 cells/well in a 24 well plate and permitted to recover for two days. Cells were glucose starved by incubation for 1 hour in the presence of 2.5 mM glucose KRB medium supplemented with 2 mM sodium bicarbonate, 10 mM Hepes, and 0.1% BSA. After washing, cells were incubated in KRB with either 2.5 mM or 16 mM glucose in the presence of either vehicle control (DMSO or MeOH) or indicated drug. After the indicated time, removed media was cleared of cell debris and secreted insulin was measured by Insulin ELISA kit (Linco Research, St. Charles, Mo., or ALPCO, Windham, N.H.). If cAMP was to be concomitantly measured, cells were pre-treated with IBMX for the final 10 minutes of the glucose starvation and IBMX was included in all subsequent incubations. For the washout experiment, subsequent to initial insulin determination, cells treated with KH7 were placed in fresh KRB (2.5 mM glucose) for an additional hour and insulin release was measured as above in the absence of any added drug. For transferrin recycling, loading of cells with I^125 transferrin was performed during hour incubation in 2.5 mM glucose KRB.

primary mouse islets = assay: insulin release from isolated mouse islets; assay type: cell-based; details: 16.7 mM glucose, 30 minutes, 30 μM KH7
Method: After several washes with Hank's Balanced Salt Solution, islets were hand-picked and 15-20 islets were distributed into each well of a 12 well plate to adhere overnight in RPMI-1640 media supplemented with 10 mM HEPES, 5.6 mM glucose, 10% FBS, 2 mM L-glutamine, 1 mM sodium pyruvate, and antibiotics.
Insulin release from isolated islets was performed in 12 well plates. Islets were preincubated in KRB (2.8 mM glucose) for 1 hour followed by incubation for 30 minutes in 2.8 mM glucose KRB in the presence of drug. The same wells were then incubated for an additional 30 minutes in 16.7 mM glucose KRB in the presence of the same drugs. Media was removed, cleared of cells, and insulin was measured.

INS-1E cells [1] = assay: transferrin recycling in INS-1E cells; assay type: cell-based; details: 30 minutes, KH7 30 μM
Method: as §1

INS-1E cells [2] = assay: insulin release in INS-1E cells; assay type: cell-based; details: for effect on glucose-stimulated insulin secretion (GSIS): 30 μM KH7, 30 μM KH7.15, 50 μM 2-hydroxyestradiol, 50 μM 2′5′ddAdo; for insulin release in low glucose: 2.5 mM glucose, 10 nM glucagon
Method: as §1

[3] = target: T1, purified recombinant human sACt protein (Homo sapiens, UniProt Q96PN6); assay: in vitro adenylyl cyclase assay on purified recombinant human sACt protein
T1 sequence (Q96PN6 1-469 limits assumed): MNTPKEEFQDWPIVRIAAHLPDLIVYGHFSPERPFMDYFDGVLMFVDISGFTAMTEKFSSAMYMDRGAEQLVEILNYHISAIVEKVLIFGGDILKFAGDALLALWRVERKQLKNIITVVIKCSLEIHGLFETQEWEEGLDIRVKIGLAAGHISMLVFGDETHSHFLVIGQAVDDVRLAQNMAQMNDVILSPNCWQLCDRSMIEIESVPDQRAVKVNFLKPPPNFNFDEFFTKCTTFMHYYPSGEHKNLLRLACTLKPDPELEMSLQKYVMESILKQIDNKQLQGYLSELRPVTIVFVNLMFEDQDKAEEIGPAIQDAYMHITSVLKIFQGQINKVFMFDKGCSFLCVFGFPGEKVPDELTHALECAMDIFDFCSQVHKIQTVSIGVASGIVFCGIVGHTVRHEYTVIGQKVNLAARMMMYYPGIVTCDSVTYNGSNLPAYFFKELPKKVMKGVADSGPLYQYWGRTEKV
Method: (§2) In vitro adenylyl cyclase assays were performed on purified recombinant human sACt protein as previously described in Litvin et al., “Kinetic Properties of “Soluble” Adenylyl Cyclase.

tmACs [4] = assay: adenylyl cyclase activity in forskolin stimulated INS-1E cell lysate; details: forskolin (10 μM) stimulated INS-1E
Method: as §2

[5] = system: CREB phosphorylation in isolated nuclei; assay: phospho-CREB immunocytochemistry of isolated nuclei; assay type: biochemical; details: 10 min; 40 mM sodium bicarbonate, 1 mM 8-Br cAMP, 10 μM forskolin
Method: Cell Signaling Technologies) overnight at 4° C. Staining was visualized by incubation with goat anti-rabbit Alexa Fluor 488 (Molecular Probes) for 1 h at room temperature, treated with DAPI for 5 min, and washed and mounted with gelvatol/DABCO (Sigma-Aldrich). Fluorescent images were recorded by a digital camera (Hamamatsu, Bridgewater, N.J.) connected to an inverted epifluorescent microscope (Nikon, Melville, N.Y.). Images were taken at the same exposure time and gain, and all photographic manipulations were performed equally. Phospho-CREB-positive nuclei were quantified in multiple fields from each stained slide by a blinded experimenter. […] Nuclei were also treated with DAPI to differentiate intact nuclei from membrane ghosts. DAPI-positive nuclei were scored for phosho-CREB immunofluorescence. Nuclei with detectable staining (FIG. 6A, NaHCO3) were considered positive for CREB phosphorylation, whereas nuclei with no detectable staining (FIG. 6A, Basal) were counted as negative. Multiple microscopic fields were photographed for each condition, and data was combined from three to five separate experiments.

[6] = system: CREB phosphorylation in isolated nuclei; assay: CREB phosphorylation in isolated HeLa nuclei (P2), Western analysis; assay type: biochemical; details: for relative intensity of phospho-CREB band normalized to basal: basal 1 U, 1 mM 8-Br cAMP, 40 mM bicarbonate alone or plus 10 μM H-89 or 1 mM 8-Br-RpcAMPs
Method: The resuspended pellet and 60% OptiPrep iodixanol were mixed (30% OptiPrep final) and centrifuged at 10,000 g for 20 min. The supernatant was removed and the nuclei-enriched pellet (P2) was resuspended in TM-2 buffer without detergent.
Reactions were stopped by the addition of 20 μl of SDS sample buffer (CREB phosphorylation) or by being placed into a 100° C. heat block for 3 min (adenylyl cyclase).
For whole cell and isolated nuclei CREB phosphorylation assays, equal cell or nuclear equivalents were separated under reducing conditions using a 10% SDS-PAGE, transferred to a PVDF membrane, and probed for CREB (rabbit polyclonal antiserum; Chemicon, Temecula, Calif.) and phosphorylated CREB (rabbit polyclonal antiserum; Upstate Biotechnology, Temecula, Calif.). HRP-conjugated secondary antibodies were used, and bands were visualized using ECL. Image analysis software (model Fluorchem 8800; Alpha Innotech, San Leandro, Calif.) was used to quantitate Western results. Intensities of phospho-CREB bands were normalized to total CREB.

[7] = target: T2, purified solubilized version of Type VII tmAC (sol.AC7) (Homo sapiens, UniProt P51828); assay: in vitro cyclase activity of purified solubilized Type VII tmAC; assay type: biochemical; details: read-out: in vitro IC50 pure sol.AC7
T2 construct: a mixture of purified catalytic domains, C1 and C2, from Type VII tmAC; made in house
T2 sequence (P51828 279-406 limits assumed): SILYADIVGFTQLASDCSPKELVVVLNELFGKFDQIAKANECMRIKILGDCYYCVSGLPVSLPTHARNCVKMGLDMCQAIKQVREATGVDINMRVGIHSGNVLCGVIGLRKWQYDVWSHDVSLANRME
T2 sequence (P51828 879-1023 limits assumed): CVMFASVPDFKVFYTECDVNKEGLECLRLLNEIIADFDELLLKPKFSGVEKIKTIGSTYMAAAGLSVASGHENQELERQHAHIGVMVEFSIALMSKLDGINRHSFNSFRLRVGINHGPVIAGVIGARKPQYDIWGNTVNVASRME

sAC = target: T3, sAC (Homo sapiens, UniProt Q96PN6); assay: cAMP forming activity inside cells stably overexpressing sAC; assay type: cell-based; details: read-out: in vivo IC50 sAC (basal)
T3 construct: expressed in transfected cells
T3 sequence (Q96PN6 whole entry, species assumed): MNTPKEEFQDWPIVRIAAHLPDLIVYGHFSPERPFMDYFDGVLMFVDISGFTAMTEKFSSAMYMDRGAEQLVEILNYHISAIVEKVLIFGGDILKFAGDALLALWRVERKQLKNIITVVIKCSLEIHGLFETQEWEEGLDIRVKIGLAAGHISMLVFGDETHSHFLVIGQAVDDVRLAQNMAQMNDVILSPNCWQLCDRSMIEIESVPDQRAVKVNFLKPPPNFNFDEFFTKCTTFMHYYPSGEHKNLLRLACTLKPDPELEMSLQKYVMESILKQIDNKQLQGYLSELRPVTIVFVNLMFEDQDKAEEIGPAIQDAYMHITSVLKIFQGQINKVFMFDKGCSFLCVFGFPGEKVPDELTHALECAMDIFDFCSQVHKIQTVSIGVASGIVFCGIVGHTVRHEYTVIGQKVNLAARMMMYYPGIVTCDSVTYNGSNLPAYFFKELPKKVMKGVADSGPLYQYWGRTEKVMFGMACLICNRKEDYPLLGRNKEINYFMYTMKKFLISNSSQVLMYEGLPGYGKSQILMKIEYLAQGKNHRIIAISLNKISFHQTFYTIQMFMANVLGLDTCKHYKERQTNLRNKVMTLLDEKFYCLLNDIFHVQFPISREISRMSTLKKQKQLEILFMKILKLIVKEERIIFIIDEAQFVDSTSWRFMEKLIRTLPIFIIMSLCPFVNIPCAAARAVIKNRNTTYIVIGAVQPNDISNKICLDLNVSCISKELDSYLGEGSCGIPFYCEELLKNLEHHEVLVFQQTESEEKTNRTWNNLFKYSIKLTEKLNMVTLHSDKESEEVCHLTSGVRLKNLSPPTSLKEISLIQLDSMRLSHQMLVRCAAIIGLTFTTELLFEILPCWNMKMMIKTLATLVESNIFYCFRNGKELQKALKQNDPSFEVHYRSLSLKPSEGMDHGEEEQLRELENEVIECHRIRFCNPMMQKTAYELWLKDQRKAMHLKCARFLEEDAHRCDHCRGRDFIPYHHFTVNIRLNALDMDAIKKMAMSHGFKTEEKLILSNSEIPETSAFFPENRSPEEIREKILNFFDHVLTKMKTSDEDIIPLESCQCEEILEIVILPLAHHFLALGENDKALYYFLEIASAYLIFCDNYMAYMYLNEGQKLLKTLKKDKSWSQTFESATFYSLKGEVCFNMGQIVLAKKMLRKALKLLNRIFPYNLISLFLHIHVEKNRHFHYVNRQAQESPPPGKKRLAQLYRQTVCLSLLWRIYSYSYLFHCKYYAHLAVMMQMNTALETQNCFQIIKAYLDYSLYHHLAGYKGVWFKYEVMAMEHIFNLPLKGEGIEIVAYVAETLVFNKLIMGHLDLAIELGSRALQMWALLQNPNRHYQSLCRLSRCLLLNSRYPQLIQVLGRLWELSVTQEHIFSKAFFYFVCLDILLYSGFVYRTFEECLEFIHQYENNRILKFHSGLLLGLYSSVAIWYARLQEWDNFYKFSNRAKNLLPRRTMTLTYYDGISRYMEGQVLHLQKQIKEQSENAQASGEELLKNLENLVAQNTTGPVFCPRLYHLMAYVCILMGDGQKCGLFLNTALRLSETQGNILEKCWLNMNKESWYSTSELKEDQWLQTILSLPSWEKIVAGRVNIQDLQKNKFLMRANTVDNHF

[8] = target: T4, purified sperm isoform of sAC protein (pure sAC) (Homo sapiens, UniProt Q96PN6); assay: in vitro cyclase activity of purified sAC protein (Table 1); assay type: biochemical
T4 construct: generated against human 48-kD isoform of sAC (sACt) antigen; made in house
T4 sequence (Q96PN6 1-469 limits assumed): T1 sequence (Q96PN6 1-469 limits assumed)

tmACs [9] = assay: cAMP forming activity inside cells stimulated with forskolin; assay type: cell-based; details: read-out: in vivo IC50 tmAC (FSK)
[10] = target: T5, sperm sAC (sAC in extracts) (UniProt Q96PN6); assay: in vitro cyclase activity in whole cell extracts from cells overexpressing sperm sAC cDNA; assay type: biochemical; details: unit inferred
T5 construct: whole cell extracts from cells overexpressing sperm sAC cDNA (sAC in extracts)

[11] = target: T6, Type II tmAC (tmAC in extracts) (Homo sapiens, UniProt Q08462); assay: in vitro cyclase activity in extracts of cells overexpressing Type II tmAC; assay type: biochemical; details: unit inferred
T6 construct: expressed in transfected cells
T6 sequence (Q08462 whole entry): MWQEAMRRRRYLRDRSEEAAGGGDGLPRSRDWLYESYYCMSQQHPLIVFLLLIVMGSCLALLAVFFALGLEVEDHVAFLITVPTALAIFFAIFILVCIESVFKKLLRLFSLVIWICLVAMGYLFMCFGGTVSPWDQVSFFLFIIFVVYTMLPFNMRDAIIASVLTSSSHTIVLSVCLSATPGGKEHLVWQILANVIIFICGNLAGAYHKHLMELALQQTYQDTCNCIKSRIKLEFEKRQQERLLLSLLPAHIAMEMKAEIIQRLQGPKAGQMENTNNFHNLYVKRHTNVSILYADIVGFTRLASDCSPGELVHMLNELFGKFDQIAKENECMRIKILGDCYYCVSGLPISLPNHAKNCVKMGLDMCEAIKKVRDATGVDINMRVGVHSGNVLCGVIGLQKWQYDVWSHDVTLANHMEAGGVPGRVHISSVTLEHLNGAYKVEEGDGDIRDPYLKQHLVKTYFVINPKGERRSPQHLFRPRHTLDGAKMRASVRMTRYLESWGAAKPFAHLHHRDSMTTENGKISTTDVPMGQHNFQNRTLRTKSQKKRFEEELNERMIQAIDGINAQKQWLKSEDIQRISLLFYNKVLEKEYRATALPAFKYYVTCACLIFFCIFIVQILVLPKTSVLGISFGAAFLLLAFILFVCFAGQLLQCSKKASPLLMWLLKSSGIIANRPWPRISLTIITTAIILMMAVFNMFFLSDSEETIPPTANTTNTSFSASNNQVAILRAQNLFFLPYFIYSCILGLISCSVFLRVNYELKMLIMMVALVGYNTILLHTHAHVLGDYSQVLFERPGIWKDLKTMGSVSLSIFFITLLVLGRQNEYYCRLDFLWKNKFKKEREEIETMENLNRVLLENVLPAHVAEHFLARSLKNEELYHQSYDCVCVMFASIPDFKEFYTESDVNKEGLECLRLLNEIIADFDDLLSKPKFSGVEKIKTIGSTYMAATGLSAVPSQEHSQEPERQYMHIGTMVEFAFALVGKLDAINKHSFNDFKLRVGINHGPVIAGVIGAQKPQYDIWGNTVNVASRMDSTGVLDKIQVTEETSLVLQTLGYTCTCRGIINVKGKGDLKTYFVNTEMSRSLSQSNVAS

PfAC = assay: adenylyl cyclase activity in whole cell extract of isolated parasites; assay type: biochemical, Plasmodium falciparum
Plasmodium falciparum = Plasmodium falciparum viability, luciferase assay; assay type: cell-based
Method: . Plasmodium cultures were incubated in the indicated concentrations of KH7 or KH7.15 for 24 hours and viability assessed by luciferase assay (FIG. 16A). […].
Therefore, the effect of sAC inhibitors on P. falciparum viability was tested. […].

Molecule: C[C@]12CC[C@@H]3c4cc(O)c(O)cc4CC[C@H]3[C@@H]1CC[C@@H]2O [2-hydroxyestradiol, reference compound]
effect on cAMP induced by high glucose (cAMP in INS-1E cells): blocked the cAMP induced by the presence of high glucose
effect on insulin release induced by high glucose in islets (primary mouse islets): inhibited insulin release induced by high glucose
effect on transferrin recycling (INS-1E cells [1]): unaffected
effect on glucose-stimulated insulin secretion (GSIS) (INS-1E cells [2]; 16 mM glucose): completely inhibited GSIS

Molecule: C[C@H]1O[C@@H](n2cnc3c(N)ncnc32)C[C@@H]1O [2′5′ddAdo, 2′5′ dideoxyadenosine]
effect on cAMP induced by high glucose (cAMP in INS-1E cells): partially decreased glucose-induced cAMP generation
effect on sAC ([3]; bicarbonate/calcium stimulated pure sAC, concentrations up to 300 μM): did not significantly affect sAC; also recorded: inert towards sAC
effect on tmACs (tmACs [4]): potent inhibitor of tmACs

Molecule: Nc1ncnc2c1nc(Br)n2[C@@H]1O[C@@H]2COP(=O)(O)O[C@H]2[C@H]1O [8-Br-cAMP]
percentage of phospho-CREB-positive nuclei relative to basal [5]: at least a twofold rise
relative intensity of phospho-CREB band normalized to basal [6]: 30 U
increase in CREB phosphorylation ([6]; isolated nuclei, Western): 30 fold

Molecule: CC(C)Cn1c(=O)n(C)c(=O)c2[nH]cnc21 [IBMX, reference compound]
restoration of GSIS in the presence of KH7 (INS-1E cells [2]; 0.5 mM IBMX, 30 μM KH7): did not restore GSIS in the presence of KH7 inhibition
enhancement of GSIS (INS-1E cells [2]; 0.5 mM IBMX, 16 mM glucose, 15 minutes): at least 2 fold

IC50 [7]: > 200 µM
IC50 (sAC): > 500 µM
IC50 ([8]; μM): 23 µM
IC50 (tmACs [9]): > 500 µM
Molecule: CCCCOc1ccc(C2=N/C(=C\C(Br)=C\c3ccccc3)C(=O)O2)cc1 [KH1]

IC50 [10]: > 100 µM
IC50 [11]: > 100 µM
IC50 [7]: > 400 µM
IC50 (sAC): > 500 µM
IC50 ([8]; μM): 2 µM
IC50 (tmACs [9]): > 500 µM
Molecule: COc1ccc(/C=C2\C(=O)N(c3nc(-c4ccc(Cl)cc4)cs3)N=C2c2ccccc2)cc1OC [KH2]

IC50 [10]: > 100 µM
IC50 [11]: > 100 µM
IC50 [7]: > 500 µM
IC50 (sAC): > 500 µM
IC50 ([8]; μM): 8 µM
IC50 (tmACs [9]): > 500 µM
Molecule: Cc1ccc(C)c(N2C(=O)/C(=C/c3ccc(Cl)cc3)C=C2c2ccccc2)c1 [KH3]

IC50 [10]: > 100 µM
IC50 [11]: > 100 µM
IC50 [7]: > 27 µM
IC50 (sAC): > 500 µM
IC50 ([8]; μM): 6 µM
IC50 (tmACs [9]): > 500 µM
Molecule: Cc1ccccc1N1C(=O)/C(=C/c2ccc(-c3ccc(Cl)c(Cl)c3)o2)C=C1c1ccccc1 [KH4]

IC50 (sAC): 30 µM
IC50 ([8]; unit inferred): ~30 µM
IC50 (tmACs [9]): > 200 µM
Molecule: COc1ccc(Br)cc1/C=N/NC(=O)CSc1nc2ccccc2[nH]1 [KH7.05]

IC50 ([8]; unit inferred): ~30 µM
Molecule: O=C(CSc1nc2ccccc2[nH]1)N/N=C/c1c(F)cccc1Cl [KH7.06]

IC50 (sAC): 30 µM
IC50 ([8]; μM): 30 µM
IC50 (tmACs [9]): > 200 µM
Molecule: O=C(CSc1nc2ccccc2[nH]1)N/N=C/c1cc(Br)ccc1O [KH7.07]

IC50 ([8]; unit inferred): 80 µM
Molecule: Cc1ccsc1/C=N/NC(=O)CSc1nc2ccccc2n1Cc1ccccc1 [KH7.10]

IC50 ([8]; unit inferred): 75 µM
Molecule: CCn1c(SCC(=O)N/N=C/c2cc(Br)ccc2O)nc2ccccc21 [KH7.13]

Molecule: COc1cc(/C=N/NC(=O)CSc2nc3ccccc3[nH]2)ccc1O [KH7.15]
effect on cAMP induced by high glucose (cAMP in INS-1E cells): not
dose required to inhibit PfAC activity (PfAC): ≥ 100 µM
lower affinity for inhibiting PfAC activity relative to KH7 (PfAC): 10 fold
effect on cyclase activity of purified sAC ([3]; bicarbonate (40 mM) and calcium (0.5 mM)): inert
effect on tmACs (tmACs [4]): inert
dose required to kill parasites (Plasmodium falciparum): ≥ 100 µM
lower affinity for killing P. falciparum relative to KH7 (Plasmodium falciparum): 10 fold
effect on glucose-stimulated insulin secretion (GSIS) (INS-1E cells [2]; 16 mM glucose): did not affect insulin secretion

Molecule: Nc1ncnc2c1ncn2[C@@H]1O[C@@H]2CO[P@@](O)(=S)O[C@H]2[C@H]1O [RpcAMPs]
relative intensity of phospho-CREB band normalized to basal [6]: 8 U
reduction of CREB phosphorylation induced by bicarbonate ([6]; isolated nuclei, 40 mM bicarbonate): 70%

Molecule: GLP-1: hormone stimulating tmACs (HAEGTFTSDVSSYLEGQAAKEFIAWLVKGR; ends and bridges not checked; UniProt P01275 98-127, looked up) [reference compound]
cAMP generation in low glucose (cAMP in INS-1E cells): three fold increase in cAMP generation
insulin release in low glucose (INS-1E cells [2]; 15 minutes): no significant increase in insulin release

Molecule: glucagon: hormone stimulating tmACs [reference compound]
cAMP generation in low glucose (cAMP in INS-1E cells): three fold increase in cAMP generation
insulin release in low glucose (INS-1E cells [2]; 15 minutes): no significant increase in insulin release
